Reference: patent publication US9649379B2, “Pharmaceutical composition and pharmaceutical kit for the treatment of hepatocellular carcinoma” (ALMA MATER STUDIORUM—UNIVERSITA' DI BOLOGNA, priority 2007, dated 2017)

Test system: Cleaved PARP
Assay: Apoptosis analysis: Western blot of cleaved PARP after doxorubicin
Type: cell-based, human
Settings: doxorubicin 100 μg/ml, infected HepG2 cells
Experimental: Stably infected cell populations of HepG2 cells were seeded into 6-well dishes and allowed to attach for 24 hours, washed and cultured in fresh complete medium with 100 ug/ml doxorubicin (Sigma) for 1 h, 3 h, 6 h, 12 h, 18 h and 24 h. Doxorubicin incorporation was detected by FACS counting of 10,000 events.
Cultured cells were dissolved in lysis buffer containing 10 mM Tris-HCl pH 7.4, 2.5 mM MgCl2, 1% TritonX 100, 1 mM DTT, 0.1 mM phenylmethylsulfonyl fluoride (PMSF), 1 mM Na3VO4, 1 mM NaF and protease inhibitors (Sigma Chemical Company, St. Louis, Mo.). The lysate was centrifuged at 4° C., 15,000×g, for 15 min and the supernatant assayed for protein concentration by Bio-Rad protein assay (Bio-Rad). […]
After repeated washing in PBS containing 0.1% Tween 20 (PBST), membranes were incubated with anti-mouse or anti-rabbit HRP-conjugated secondary antibodies using the EnVision dextran polymer visualization system (Dako). […] Digital images of autoradiographs were acquired with a Fluor-S MultiImager scanner (BioRad) and signals were quantitated with Quantity-one densitometric software (BioRad, Hercules, Calif.) in absorbance units after light calibration with a reference autoradiograph.

Compound: COc1cccc2c1C(=O)c1c(O)c3c(c(O)c1C2=O)C[C@@](O)(C(=O)CO)C[C@@H]3O[C@H]1C[C@H](N)[C@H](O)[C@H](C)O1 [Doxorubicin, doxorubicin]
- cleavage of PARP: caused cleavage of PARP
